The compounds below were run on hypoxia-inducible endogenous VEGF expression (assay: Assay to evaluate effect on hypoxia-inducible endogenous VEGF expression (VEGF ELISA, HeLa cells)). Settings: HeLa cells cultured 24-48 hours under hypoxic conditions (1% O2, 5% CO2); VEGF in conditioned media by ELISA; read-out: ELISA EC50 (effective concentration required to lower the amount of VEGF translation by 50%).
Type: cell-based
Procedure: Assay to Evaluate Effect on Hypoxia-Inducible Endogenous VEGF Expression
The ability of the compounds of the invention to modulate hypoxia-inducible endogenous VEGF expression is analyzed as follows. VEGF protein levels are monitored by an ELISA assay (R&D Systems). Briefly, HeLa cells are cultured for 24-48 hours under hypoxic conditions (1% O2, 5% CO2, balanced with nitrogen) in the presence or absence of a compound of the invention. The conditioned media is then assayed by ELISA, and the concentration of VEGF is calculated from the standard ELISA curve of each assay.
A dose-response analysis is performed using the ELISA assay and conditions described above. A series of, e.g., seven different concentrations are analyzed. In parallel, a dose-response cytotoxicity assay is performed using Cell Titer Glo (Promega) under the same conditions as the ELISA to ensure that the inhibition of VEGF expression is not due to the cytotoxicity. Dose-response curves are plotted using percentage inhibition versus concentration of the compound, and EC50 and CC50 values are generated for each compound with the maximal inhibition set as 100% and the minimal inhibition as 0%.
The most preferred compounds of the invention are those with μM values of 3 or less.
Compound O=C(Oc1ccccc1Br)N1CCc2ccccc21 [2,3-Dihydro-indole-1-carboxylic acid 2-bromo-phenyl ester] has an EC50 of over 30 µM. Cc1ccc(OC(=O)N2C(C)CCCC2C)c(Br)c1 (centres unmarked) [2,6-Dimethyl-piperidine-1-carboxylic acid 2-bromo-4-methyl-phenyl ester] gave an EC50 of over 30 µM. In the case of CC1CCCC(C)N1C(=O)Oc1ccccc1Br (centres unmarked) [2,6-Dimethyl-piperidine-1-carboxylic acid 2-bromo-phenyl ester], the EC50 is reported as over 30 µM. For Cc1ccc(OC(=O)N2CCCCC2C)c(Br)c1 (centres unmarked) [2-Methyl-piperidine-1-carboxylic acid 2-bromo-4-methyl-phenyl ester], the EC50 was over 30 µM. CC1CC(C)CN(C(=O)Oc2ccccc2Br)C1 (centres unmarked) [3,5-Dimethyl-piperidine-1-carboxylic acid 2-bromo-phenyl ester] gave an EC50 of over 30 µM. Work on Cc1ccc2cc(OC(=O)N3CC(C)CC(C)C3)ccc2n1 (centres unmarked) [3,5-Dimethyl-piperidine-1-carboxylic acid 2-methyl-quinolin-6-yl ester] yielded an EC50 of over 30 µM.

Same assay, conditions: Homo sapiens, HeLa, read-out: ELISA EC50 (effective concentration required to lower the amount of VEGF translation by 50%)
Cc1ccc(OC(=O)N2CCc3ccccc32)c(Br)c1 [2,3-Dihydro-indole-1-carboxylic acid 2-bromo-4-methyl-phenyl ester] gave an EC50 of over 30 µM. Work on CC1CCCCN1C(=O)Oc1ccccc1Br (centres unmarked) [2-Methyl-piperidine-1-carboxylic acid 2-bromo-phenyl ester] yielded an EC50 of over 30 µM. Compound Cc1ccc2cc(OC(=O)N3CCCCC3C)ccc2n1 (centres unmarked) [2-Methyl-piperidine-1-carboxylic acid 2-methyl-quinolin-6-yl ester] has an EC50 of over 30 µM. With CC1CC(C)CN(C(=O)Oc2cc3ccccc3cn2)C1 (centres unmarked) [3,5-Dimethyl-piperidine-1-carboxylic acid isoquinolin-3-yl ester] the EC50 was over 30 µM.

Same assay, conditions: Homo sapiens; HeLa cells cultured 24-48 hours under hypoxic conditions (1% O2, 5% CO2); VEGF in conditioned media by ELISA; read-out: ELISA EC50 (effective concentration required to lower the amount of VEGF translation by 50%)
For O=C(Oc1ccc2ccccc2c1Br)N1CCC2(CC1)OCCO2 [1,4-Dioxa-8-aza-spiro[4.5]decane-8-carboxylic acid 1-bromo-naphthalen-2-yl ester], the EC50 was 1.51 µM. Work on O=C(Oc1cc(Cl)c(Cl)cc1Cl)N1CCc2ccccc21 [2,3-Dihydro-indole-1-carboxylic acid 2,4,5-trichloro-phenyl ester] yielded an EC50 of over 30 µM. Compound O=C(Oc1c(Cl)cc(Cl)cc1Cl)N1CCc2ccccc21 [2,3-Dihydro-indole-1-carboxylic acid 2,4,6-trichloro-phenyl ester] has an EC50 of over 30 µM. Cc1ccc2cc(OC(=O)N3CCc4ccccc43)ccc2n1 [2,3-Dihydro-indole-1-carboxylic acid 2-methyl-quinolin-6-yl ester] showed an EC50 of over 30 µM. In the case of O=C(Oc1cc2ccccc2cn1)N1CCc2ccccc21 [2,3-Dihydro-indole-1-carboxylic acid isoquinolin-3-yl ester], the EC50 is reported as over 30 µM. CC(=O)c1c(OC(=O)N2CCc3cccnc32)ccc2ccccc12 [2,3-Dihydro-pyrrolo[2,3-b]pyridine-1-carboxylic acid 1-acetyl-naphthalen-2-yl ester] showed an EC50 of over 30 µM. Work on O=C(Oc1ccccc1Br)N1CCc2cccnc21 [2,3-Dihydro-pyrrolo[2,3-b]pyridine-1-carboxylic acid 2-bromo-phenyl ester] yielded an EC50 of over 30 µM. CC1CCCC(C)N1C(=O)Oc1c(Cl)cc(Cl)cc1Cl (centres unmarked) [2,6-Dimethyl-piperidine-1-carboxylic acid 2,4,6-trichloro-phenyl ester] was tested, and the EC50 was over 30 µM. CC1CCCC(C)N1C(=O)Oc1cc2ccccc2cn1 (centres unmarked) [2,6-Dimethyl-piperidine-1-carboxylic acid isoquinolin-3-yl ester] showed an EC50 of over 30 µM. In the case of CC(=O)c1c(OC(=O)N2CCCCC2C)ccc2ccccc12 (centres unmarked) [2-Methyl-piperidine-1-carboxylic acid 1-acetyl-naphthalen-2-yl ester], the EC50 is reported as over 30 µM. CC1CCCCN1C(=O)Oc1ccc2ccccc2c1Br (centres unmarked) [2-Methyl-piperidine-1-carboxylic acid 1-bromo-naphthalen-2-yl ester] was tested, and the EC50 was 0.687 µM. In the case of CC1CCCCN1C(=O)Oc1cc(Cl)c(Cl)cc1Cl (centres unmarked) [2-Methyl-piperidine-1-carboxylic acid 2,4,5-trichloro-phenyl ester], the EC50 is reported as 10.6 µM. CC1CCCCN1C(=O)Oc1c(Cl)cc(Cl)cc1Cl (centres unmarked) [2-Methyl-piperidine-1-carboxylic acid 2,4,6-trichloro-phenyl ester] was tested, and the EC50 was over 30 µM. Compound CC1CCCCN1C(=O)Oc1cc2ccccc2cn1 (centres unmarked) [2-Methyl-piperidine-1-carboxylic acid isoquinolin-3-yl ester] has an EC50 of over 30 µM. For O=C(Oc1ccc2ccccc2c1Br)N1CCc2ccccc2C1 [3,4-Dihydro-1H-isoquinoline-2-carboxylic acid 1-bromo-naphthalen-2-yl ester], the EC50 was 0.174 µM. O=C(Oc1cc(Cl)c(Cl)cc1Cl)N1CCc2ccccc2C1 [3,4-Dihydro-1H-isoquinoline-2-carboxylic acid 2,4,5-trichloro-phenyl ester] showed an EC50 of 18.7 µM. For O=C(Oc1c(Cl)cc(Cl)cc1Cl)N1CCc2ccccc2C1 [3,4-Dihydro-1H-isoquinoline-2-carboxylic acid 2,4,6-trichloro-phenyl ester], the EC50 was over 30 µM. Cc1ccc2cc(OC(=O)N3CCc4ccccc4C3)ccc2n1 [3,4-Dihydro-1H-isoquinoline-2-carboxylic acid 2-methyl-quinolin-6-yl ester] gave an EC50 of over 30 µM. O=C(Oc1cc2ccccc2cn1)N1CCc2ccccc2C1 [3,4-Dihydro-1H-isoquinoline-2-carboxylic acid isoquinolin-3-yl ester] was tested, and the EC50 was over 30 µM. In the case of O=C(Oc1cc(Cl)c(Cl)cc1Cl)N1CCCc2ccccc21 [3,4-Dihydro-2H-quinoline-1-carboxylic acid 2,4,5-trichloro-phenyl ester], the EC50 is reported as 11.2 µM. For O=C(Oc1c(Cl)cc(Cl)cc1Cl)N1CCCc2ccccc21 [3,4-Dihydro-2H-quinoline-1-carboxylic acid 2,4,6-trichloro-phenyl ester], the EC50 was over 30 µM. With Cc1ccc2cc(OC(=O)N3CCCc4ccccc43)ccc2n1 [3,4-Dihydro-2H-quinoline-1-carboxylic acid 2-methyl-quinolin-6-yl ester] the EC50 was over 30 µM. O=C(Oc1cc2ccccc2cn1)N1CCCc2ccccc21 [3,4-Dihydro-2H-quinoline-1-carboxylic acid isoquinolin-3-yl ester] was tested, and the EC50 was over 30 µM. Compound CC(=O)c1c(OC(=O)N2CC(C)CC(C)C2)ccc2ccccc12 (centres unmarked) [3,5-Dimethyl-piperidine-1-carboxylic acid 1-acetyl-naphthalen-2-yl ester] has an EC50 of 0.764 µM. CC1CC(C)CN(C(=O)Oc2ccc3ccccc3c2Br)C1 (centres unmarked) [3,5-Dimethyl-piperidine-1-carboxylic acid 1-bromo-naphthalen-2-yl ester] showed an EC50 of 0.129 µM. CC1CC(C)CN(C(=O)Oc2ccc3ccccc3c2NS(C)(=O)=O)C1 (centres unmarked) [3,5-Dimethyl-piperidine-1-carboxylic acid 1-methanesulfonylamino-naphthalen-2-yl ester] was tested, and the EC50 was over 5 µM. In the case of CC1CC(C)CN(C(=O)Oc2cc(Cl)c(Cl)cc2Cl)C1 (centres unmarked) [3,5-Dimethyl-piperidine-1-carboxylic acid 2,4,5-trichloro-phenyl ester], the EC50 is reported as 11.2 µM. With CC1CC(C)CN(C(=O)Oc2c(Cl)cc(Cl)cc2Cl)C1 (centres unmarked) [3,5-Dimethyl-piperidine-1-carboxylic acid 2,4,6-trichloro-phenyl ester] the EC50 was over 30 µM. In the case of Cc1ccc(OC(=O)N2CC(C)CC(C)C2)c(Br)c1 (centres unmarked) [3,5-Dimethyl-piperidine-1-carboxylic acid 2-bromo-4-methyl-phenyl ester], the EC50 is reported as over 30 µM. CC1CC(C)CN(C(=O)Oc2ncc3ccccc3c2Cl)C1 (centres unmarked) [3,5-Dimethyl-piperidine-1-carboxylic acid 4-chloro-isoquinolin-3-yl ester] was tested, and the EC50 was over 10 µM. In the case of CC1CC(C)CN(C(=O)Nc2ccc3ccccc3c2Br)C1 (centres unmarked) [3,5-Dimethyl-piperidine-1-carboxylic acid (1-bromo-naphthalen-2-yl)-amide], the EC50 is reported as over 10 µM. In the case of CC1CC(C)CN(C(=O)Nc2ccc3ccccc3c2Cl)C1 (centres unmarked) [3,5-Dimethyl-piperidine-1-carboxylic acid (1-chloro-naphthalen-2-yl)-amide], the EC50 is reported as over 10 µM. Work on CC1CC(C)CN(C(=O)Nc2ccc3ccccc3c2)C1 (centres unmarked) [3,5-Dimethyl-piperidine-1-carboxylic acid naphthalen-2-ylamide] yielded an EC50 of over 10 µM. With COc1ccc2ccc(OC(=O)N3CCN(c4ccc(Cl)cc4)CC3)c(Br)c2c1 [4-(4-Chloro-phenyl)-piperazine-1-carboxylic acid 1-bromo-7-methoxy-naphthalen-2-yl ester] the EC50 was over 10 µM. Work on O=C(Nc1ccc2ccccc2c1Cl)N1CCN(c2ccc(Cl)cc2)CC1 [4-(4-Chloro-phenyl)-piperazine-1-carboxylic acid (1-chloro-naphthalen-2-yl)-amide] yielded an EC50 of over 10 µM. Compound COc1ccc2ccc(OC(=O)N3CCC(C(O)(c4ccccc4)c4ccccc4)CC3)c(Br)c2c1 [4-(Hydroxy-diphenyl-methyl)-piperidine-1-carboxylic acid 1-bromo-7-methoxy-naphthalen-2-yl ester] has an EC50 of over 10 µM. Work on O=C(Oc1ccc2ccccc2c1Br)N1CCC(C(O)(c2ccccc2)c2ccccc2)CC1 [4-(Hydroxy-diphenyl-methyl)-piperidine-1-carboxylic acid 1-bromo-naphthalen-2-yl ester] yielded an EC50 of 0.0202 µM.

Source: patent US8143257B2, “Substituted phenols as active agents inhibiting VEGF production” (PTC Therapeutics, Inc., priority 2004, dated 2012)
